Test results from US10288604B2, “Method for imaging cell using fluorescence-labeled sugar derivative having coumarin derivative bound thereto, and imaging agent” (HIROSAKI UNIVERSITY, priority 2012, dated 2019).
“Also recorded” adds a separate entry of the source.

Tests used:
[1] = test system: tumor cell cluster composed of mouse insulinoma cells (MIN6); assay: Imaging of tumor cell cluster composed of MIN6 cells (real time laser scanning confocal microscope); type: cell-based; settings: MIN6 cluster day 13
Method: A culture solution prepared by suspending MIN6 cells at a proportion of 10×10^4 cells/mL was dropped in an amount of 10 μL on a glass cover slip, then, allowed to adhere to the glass surface, and 3 mL of the culture solution was added and cultured. The half quantity of the culture solution was changed every three days.
Cryopreserved MIN6 cells (cells donated from Professor Miyazaki Junichi of Osaka University and cultured 5 to 8 passages) were subjected to culture according to an ordinary method, and cultured 7 to 9 passages which were used in experiments. The half amount of the culture solution was changed every two days.
NaCl 120.0 mM, KCl 4.75 mM, KH2 PO4 1.19 mM, MgSO4.7H2O 1.19 mM, CaCl2.2H2O 1 mM, NaHCO3 5.02 mM, D-Glucose 5.6 mM, HEPES 10 mM (adjusted to pH 7.35 with 1M NaOH). For inhibiting entrance and elimination of fluorescently labeled glucose via a gap junction/hemichannel, 0.1 mM Carbenoxolone (SIGMA #C4790) was added. The HEPES solution for image acquisition was used as a solution for preparing a 2-PBLG solution and as a solution for preparing a 2-PBLG/2-TRLG solution and 2-PBLG/2-NBDLG/2-TRLG solution.
A glass cover slip wherein MIN6 cells had been cultured was transferred into a HEPES solution for image acquisition in a perfusion chamber set on a universal stage (Leica 11600234) on a confocal laser scanning microscope (TCS SP5 available from Leica), and adhered gently and tightly to the glass surface at the bottom of the chamber. […] Further, there is an excellent effect that in the space sandwiched by the metal guides, the perfusion solution flows smoothly as a laminar flow and quick solution exchange is possible.
A perfusion solution feeding system is equipped with one 60 mL cylinder for a control solution and five 10 mL cylinders for agent feeding, which can be switched as needed by a magnetic valve to allow perfusion. In experiments according to the present invention, a 5.6 mM glucose-containing HEPES solution for image acquisition was administered using the 60 mL cylinder and a mixed solution of 2-PBLG/2-NBDLG/2-TRLG, a mixed solution of 2-PBDG/2-TRLG, or a mixed solution of 2-PBLG/2-TRLG was administered using one of the five 10 mL cylinders. As described below, to avoid generation of bubbles in the perfusion chamber, both the solutions were heated beforehand, combined in one tube before being introduced into the perfusion chamber, the flow rate thereof being controlled by a flow rate controller, then, heated again by an inline heater and fed to the perfusion chamber on the confocal microscope.
A laser scan confocal microscope (manufactured by Leica, TCS-SP5 system, microscope body is DMI6000 CS trino electromotive inverted microscope) was used in conventional mode. Regarding laser used, a 405 nm diode laser was used for excitation of 2-PBLG and 2-PBDG, excitation of a mixed solution of 2-PBLG (or 2-PBDG) and 2-TRLG with a single light source, or live staining of nucleus by DAPI. The irradiation intensity was appropriately adjusted in accordance with the fluorescent pigment used so as to obtain sufficient observation intensity by an acoustic optical polarization element (Acoustic Optical Tunable Filter, AOTF). 2-NBDLG and 2-TRLG were excited by 488 nm Argon laser. The scan speed was 200 Hz or 400 Hz.
In fluorescence detection, a photomultiplier detector (PMT) 1 was used for detection of blue fluorescence by 2-PBDG or 2-PBLG and images were acquired in a wavelength detection range set at 415-580 nm in the case of detection of bicolor of 2-PBLG/2-TRLG and in a wavelength detection range set at 415-500 nm in the case of detection of tricolor of 2-PBLG/2-NBDLG/2-TRLG. For detection of green fluorescence by 2-NBDLG, PMT2 (called green channel, the same shall apply hereinafter) was used in a wavelength detection range of 500-580 nm. For detection of red fluorescence by 2-TRLG, PMT3 (called red channel, the same shall apply hereinafter) was used in a wavelength detection range of 580-740 nm. […]

[2] = test system: neurons acutely dissociated from mouse midbrain substantia nigra pars reticulata; assay: Application of fluorescent sugar derivatives to acutely dissociated normal neurons (confocal imaging of uptake); type: cell-based; settings: 20 μM 2-TRLG co-administered with 100 μM blue derivative, 37° C.
Method: This was conducted according to a method described in WO 2010/16587.
Living neurons were acutely dissociated from mouse midbrain substantia nigra pars reticulata, and to which a mixed solution containing 100 μM of 2-PBDG and 20 μM of 2-TRLG was administered at 37° C. for 5 minutes. FIGS. 1A to C represent confocal microscopic images taken immediately before this. A is a fluorescence image in blue wavelength region (Blue channel, wavelength range: 415-580 nm). The position of cells is recognized by autofluorescence. The fluorescence signal intensity is represented by pseudocolor. B is a fluorescence image in red wavelength region (Red channel, 580-740 nm). A and B were obtained both by simultaneous excitation using 405 nm Blue diode laser at an intensity of 60%, wherein photomultipliers (PMT) 1 and 2 were used respectively, and the detection sensitivity of PMT2 was raised higher than PMT1 so that the presence or absence of invasion of 2-TRLG can be detected in a sensitive manner. C is a view in which the bright field image is overlaid on the fluorescence images of A and B.
An experiment was conducted in the same manner as in Example 2.
FIGS. 2A to C represent confocal microscopic images immediately before administration of a mixed solution containing 100 μM of 2-PBLG and 20 μM of 2-TRLG at 37° C. to acutely dissociated neurons of mouse midbrain substantia nigra pars reticulata for 5 minutes.
FIG. 3 represents confocal microscopic images before and after administration of a mixed solution containing 100 μM of 2-HCDG and 20 μM of 2-TRLG at 37° C. for 3 minutes to neurons acutely dissociated from mouse midbrain substantia nigra pars reticulata. A and B are fluorescence images acquired before administration in Blue channel (415-580 nm) and Red channel (580-740 nm), respectively. The excitation wavelength is 405 nm. C is an image of differential interference (Differential Interference contrast, DIC). D is an overlay of the above-described images. E to H are the same as A to D, excepting that E to H are images acquired 4 minutes after initiation of washout of the fluorescence tracer solution after administration of the 2-HCDG+2-TRLG fluorescence tracer solution at 37° C. for 3 minutes. […] Since invasion of 2-TRLG into a cell is not observed, the plasma membrane of the neuron is thought to be maintained intactly.
Since the optimal excitation wavelength was as very low as 320 nm in this experiment, an image was acquired by Retiga-2000R CCD camera manufactured by Q-imaging via a custom-order filter constituted of an excitation filter (320 nm) (half width: 40 nm), a fluorescence filter (435 nm) (half width: 40 nm) and a dichroic mirror (409 nm), by a xenon lamp, using Nikon Ti-E real time deconvolution microscope.

2-TexasRed-2-amino-2-deoxy-L-glucose [2-TRLG]
fluorescence of cells in the cell cluster 2 minutes after initiation of washout ([1]; mixed solution 100 μM 2-PBLG and 20 μM 2-TRLG, administered 5 minutes): invades into the cell having increased membrane permeability mainly present at the center of a cell cluster | fluorescence of cells in the cancer cell cluster 8 minutes after completion of administration ([1]; mixed solution 100 μM 2-PBLG, 100 μM 2-NBDLG, 20 μM 2-TRLG): very weak red fluorescence | fluorescence intensity in Red channel / invasion of 2-TRLG into a cell [2]: did not increase; also recorded: scarcely increased; also recorded: not observed
